Consider 27 compounds from patent US12258329B2 (Merck Sharp & Dohme LLC, priority 2018, dated 2025).

The assay relates to infected PBMCs (VSV-G pseudotyped HIV virus VSV-G/pNLG1-P2A-ΔEnv). Briefly: cells. As to conditions: Homo sapiens, PBMC, read-out: TACK EC50. The assay is classed as cell-based, human.
In general, EC50 refers to the concentration giving half of the maximal effect. For `Cc1c(C#N)cc(C(F)F)cc1Oc1c(C(F)(F)C(F)F)ncn(Cc2cnc(N)[nH]c2=O)c1=O` [Example 57, 3-((1-((2-amino-6-oxo-1,6-dihydropyrimidin-5-yl)methyl)-6-oxo-4-(1,1,2,2-tetrafluoroethyl)-1,6-dihydropyrimidin-5-yl)oxy)-5-(difluoromethyl)-2-methylbenzonitrile], the EC50 was determined as 493 nM.
With `Cc1nc(N)c(Cn2cnc(C(C)(F)F)c(Oc3cc(Cl)cc(C#N)c3F)c2=O)c(=O)[nH]1` [Example 58, 3-((1-((4-amino-2-methyl-6-oxo-1,6-dihydropyrimidin-5-yl)methyl)-4-(1,1-difluoroethyl)-6-oxo-1,6-dihydropyrimidin-5-yl)oxy)-5-chloro-2-fluorobenzonitrile] the figure was 252 nM; with `Cc1nc(N)c(Cn2cnc(C(F)(F)C(F)F)c(Oc3cc(C(F)F)cc(C#N)c3C)c2=O)c(=O)[nH]1` [Example 59, 3-((1-((4-amino-2-methyl-6-oxo-1,6-dihydropyrimidin-5-yl)methyl)-6-oxo-4-(1,1,2,2-tetrafluoroethyl)-1,6-dihydropyrimidin-5-yl)oxy)-5-(difluoromethyl)-2-methylbenzonitrile], 135 nM.
As for `Cc1nc(N)c(Cn2cnc(C(F)(F)F)c(Oc3cc(C(F)F)cc(C#N)c3C)c2=O)c(=O)[nH]1` [Example 60, 3-((1-((4-amino-2-methyl-6-oxo-1,6-dihydropyrimidin-5-yl)methyl)-6-oxo-4-(trifluoromethyl)-1,6-dihydropyrimidin-5-yl)oxy)-5-(difluoromethyl)-2-methylbenzonitrile], the EC50 turned out to be 228 nM.
With `CCc1nc(C)[nH]c(=O)c1Cn1cnc(C(F)(F)C(F)F)c(Oc2cc(C(F)F)cc(C#N)c2C)c1=O` [Example 61, 5-(difluoromethyl)-3-((1-((4-ethyl-2-methyl-6-oxo-1,6-dihydropyrimidin-5-yl)methyl)-6-oxo-4-(1,1,2,2-tetrafluoroethyl)-1,6-dihydropyrimidin-5-yl)oxy)-2-methylbenzonitrile] the figure was 485 nM; with `Cc1nc(C2CC2)c(Cn2cnc(C(F)(F)C(F)F)c(Oc3cc(C(F)F)cc(C#N)c3C)c2=O)c(=O)[nH]1` [Example 62], 406 nM; with `CCc1nc(C)[nH]c(=O)c1Cn1cnc(C(F)(F)C(F)(F)F)c(Oc2cc(C(F)F)cc(C#N)c2C)c1=O` [Example 63, 5-(difluoromethyl)-3-((1-((4-ethyl-2-methyl-6-oxo-1,6-dihydropyrimidin-5-yl)methyl)-6-oxo-4-(perfluoroethyl)-1,6-dihydropyrimidin-5-yl)oxy)-2-methylbenzonitrile], 276 nM.
As for `Cc1nc(CF)c(Cn2cnc(C(F)(F)C(F)(F)F)c(Oc3cc(C(F)F)cc(C#N)c3C)c2=O)c(=O)[nH]1` [Example 64, 5-(difluoromethyl)-3-((1-((4-(fluoromethyl)-2-methyl-6-oxo-1,6-dihydropyrimidin-5-yl)methyl)-6-oxo-4-(perfluoroethyl)-1,6-dihydropyrimidin-5-yl)oxy)-2-methylbenzonitrile], the EC50 worked out at 162 nM.
With `Cc1nc(C(F)F)c(Cn2cnc(C(F)(F)C(F)(F)F)c(Oc3cc(C(F)F)cc(C#N)c3C)c2=O)c(=O)[nH]1` [Example 65, 5-(difluoromethyl)-3-((1-((4-(difluoromethyl)-2-methyl-6-oxo-1,6-dihydropyrimidin-5-yl)methyl)-6-oxo-4-(perfluoroethyl)-1,6-dihydropyrimidin-5-yl)oxy)-2-methylbenzonitrile] the figure was 382 nM.
With `Cc1nc(C)c(Cn2cnc(C(F)(F)C(F)F)c(Oc3cc(C(F)F)cc(C#N)c3C)c2=O)c(=O)[nH]1` [Example 66, 5-(difluoromethyl)-3-((1-((2,4-dimethyl-6-oxo-1,6-dihydropyrimidin-5-yl)methyl)-6-oxo-4-(1,1,2,2-tetrafluoroethyl)-1,6-dihydropyrimidin-5-yl)oxy)-2-methylbenzonitrile] the figure was 262 nM.
With `Cc1ncc(Cn2cnc(C(F)(F)C(F)(F)F)c(Oc3cc(C(F)F)cc(C#N)c3C)c2=O)c(=O)[nH]1` [Example 67, 5-(difluoromethyl)-2-methyl-3-((1-((2-methyl-6-oxo-1,6-dihydropyrimidin-5-yl)methyl)-6-oxo-4-(perfluoroethyl)-1,6-dihydropyrimidin-5-yl)oxy)benzonitrile] the figure was 174 nM; with `Cc1cc(C#N)c(Cl)c(Oc2c(C(F)(F)C(F)F)ncn(Cc3c(C)nc(C)[nH]c3=O)c2=O)c1` [Example 68, 2-chloro-3-((1-((2,4-dimethyl-6-oxo-1,6-dihydropyrimidin-5-yl)methyl)-6-oxo-4-(1,1,2,2-tetrafluoroethyl)-1,6-dihydropyrimidin-5-yl)oxy)-5-methylbenzonitrile], 478 nM.
Turning to `Cc1nc(C)c(Cn2cnc(C(F)(F)C(F)F)c(Oc3cc(C#N)cc(C(F)F)c3)c2=O)c(=O)[nH]1` [Example 69, 3-(difluoromethyl)-5-((1-((2,4-dimethyl-6-oxo-1,6-dihydropyrimidin-5-yl)methyl)-6-oxo-4-(1,1,2,2-tetra-fluoroethyl)-1,6-dihydropyrimidin-5-yl)oxy)benzonitrile], the EC50 turned out to be 340 nM.
With `Cc1ncc(Cn2cnc(C(F)(F)C(F)F)c(Oc3cc(C(F)F)cc(C#N)c3C)c2=O)c(=O)[nH]1` [Example 70, 5-(difluoromethyl)-2-methyl-3-((1-((2-methyl-6-oxo-1,6-dihydropyrimidin-5-yl)methyl)-6-oxo-4-(1,1,2,2-tetra-fluoroethyl)-1,6-dihydropyrimidin-5-yl)oxy)benzonitrile], the EC50 was 203 nM.
Turning to `Cc1nc(C)c(Cn2cnc(C(F)(F)C(F)(F)F)c(Oc3c(F)ccc(C#N)c3F)c2=O)c(=O)[nH]1` [Example 71, 3-((1-((2,4-dimethyl-6-oxo-1,6-dihydropyrimidin-5-yl)methyl)-6-oxo-4-(perfluoroethyl)-1,6-dihydropyrimidin-5-yl)oxy)-2,4-difluorobenzonitrile], the EC50 turned out to be 149 nM.
With `Cc1nc(C)c(Cn2cnc(C(F)(F)C(F)(F)F)c(Oc3cc(Cl)cc(C#N)c3C)c2=O)c(=O)[nH]1` [Example 72, 5-chloro-3-((1-((2,4-dimethyl-6-oxo-1,6-dihydropyrimidin-5-yl)methyl)-6-oxo-4-(perfluoroethyl)-1,6-dihydro-pyrimidin-5-yl)oxy)-2-methylbenzonitrile] the figure was 377 nM; with `Cc1nc(C)c(Cn2cnc(C(F)(F)C(F)(F)F)c(Oc3cccc(C#N)c3C)c2=O)c(=O)[nH]1` [Example 74, 3-((1-((2,4-dimethyl-6-oxo-1,6-dihydropyrimidin-5-yl)methyl)-6-oxo-4-(perfluoroethyl)-1,6-dihydropyrimidin-5-yl)oxy)-2-methylbenzonitrile], 484 nM.
With `Cc1nc(C)c(Cn2cnc(C(F)(F)C(F)F)c(Oc3c(C)cc(C#N)cc3C)c2=O)c(=O)[nH]1` [Example 75, 4-((1-((2,4-dimethyl-6-oxo-1,6-dihydropyrimidin-5-yl)methyl)-6-oxo-4-(1,1,2,2-tetrafluoroethyl)-1,6-dihydropyrimidin-5-yl)oxy)-3,5-dimethylbenzonitrile] the figure was 209 nM.
With `COc1cc(C#N)cc(C)c1Oc1c(C(F)(F)C(F)(F)F)ncn(Cc2c(C)nc(C)[nH]c2=O)c1=O` [Example 76, 4-((1-((2,4-dimethyl-6-oxo-1,6-dihydropyrimidin-5-yl)methyl)-6-oxo-4-(perfluoroethyl)-1,6-dihydropyrimidin-5-yl)oxy)-3-methoxy-5-methylbenzonitrile] the figure was 498 nM; with `Cc1nc(C)c(Cn2cnc(C(F)(F)F)c(Oc3c(C)cc(C#N)cc3C)c2=O)c(=O)[nH]1` [Example 77, 4-((1-((2,4-dimethyl-6-oxo-1,6-dihydropyrimidin-5-yl)methyl)-6-oxo-4-(trifluoromethyl)-1,6-dihydropyrimidin-5-yl)oxy)-3,5-dimethylbenzonitrile], 409 nM.
As for `Cc1nc(C)c(Cn2cnc(C(F)(F)C(F)(F)F)c(Oc3c(C)cc(C#N)cc3C)c2=O)c(=O)[nH]1` [Example 78, 4-((1-((2,4-dimethyl-6-oxo-1,6-dihydropyrimidin-5-yl)methyl)-6-oxo-4-(perfluoroethyl)-1,6-dihydropyrimidin-5-yl)oxy)-3,5-dimethylbenzonitrile], the EC50 came to 156 nM.
As to `Cc1nc[nH]c(=O)c1Cn1cnc(C(F)(F)C(F)F)c(Oc2cc(C(F)F)cc(C#N)c2C)c1=O` [Example 79, 5-(difluoromethyl)-2-methyl-3-((1-((4-methyl-6-oxo-1,6-dihydropyrimidin-5-yl)methyl)-6-oxo-4-(1,1,2,2-tetra-fluoroethyl)-1,6-dihydropyrimidin-5-yl)oxy)benzonitrile], the EC50 worked out at 460 nM.
With `Cc1nc(C)c(Cn2cnc(C(F)(F)C(F)(F)F)c(Oc3cc(Cl)cc(C#N)c3Cl)c2=O)c(=O)[nH]1` [Example 80, 2,5-dichloro-3-((1-((2,4-dimethyl-6-oxo-1,6-dihydropyrimidin-5-yl)methyl)-6-oxo-4-(perfluoroethyl)-1,6-dihydropyrimidin-5-yl)oxy)benzonitrile] the figure was 340 nM; with `Cc1nc(C)c(Cn2cnc(C(F)(F)C(F)F)c(Oc3cc(Cl)cc(C#N)c3F)c2=O)c(=O)[nH]1` [Example 81, 5-chloro-3-((1-((2,4-dimethyl-6-oxo-1,6-dihydropyrimidin-5-yl)methyl)-6-oxo-4-(1,1,2,2-tetrafluoroethyl)-1,6-dihydropyrimidin-5-yl)oxy)-2-fluorobenzonitrile], 156 nM; with `Cc1nc(C)c(Cn2cnc(C(F)(F)C(F)(F)F)c(Oc3cc(Br)cc(C#N)c3Cl)c2=O)c(=O)[nH]1` [Example 82, 5-bromo-2-chloro-3-((1-((2,4-dimethyl-6-oxo-1,6-dihydro-pyrimidin-5-yl)methyl)-6-oxo-4-(perfluoroethyl)-1,6-dihydro-pyrimidin-5-yl)oxy)benzonitrile], 531 nM.
With `Cc1nc(C)c(Cn2cnc(C(F)(F)C(F)(F)F)c(Oc3cc(C(F)F)cc(C#N)c3C)c2=O)c(=O)[nH]1` [Example 83] the figure was 252 nM; with `Cc1nc(C)c(Cn2cnc(C(F)(F)C(F)(F)F)c(Oc3cc(C#N)cc(C(F)F)c3)c2=O)c(=O)[nH]1` [Example 84], 291 nM.
